From patent US12564589B2, “Methods for treating cancer, reducing side effects of cancer treatment, and preventing the recurrence of cancer” (Florida State University Research Foundation, Inc., priority 2024, dated 2026)

How the values were obtained:
[1] = system: Budding yeast strains carrying H3G34R mutant; experiment: Yeast viability by colony enumeration after genotoxic agents; format: cell-based; details: 90 minutes treatment
Procedure: FIGS. 8A-8G show deficiency of H3.3 in cells from multiple species results in accumulation of genomic instability and endogenous DNA damage, as well as hypersensitivity to DNA damaging agents. (FIG. 8A) Enhanced rate of micronuclei formation in H3.3KD cells. Micronuclei score was determined as described previously from 1000 LUC and H3.3KD cells. The difference between LUC and H3.3 was trending towards significance (p=0.12). (FIG. 8B) Increased incidence of lagging chromosomes during mitosis in H3.3KD cells. Quantitation of lagging chromosomes from 100 anaphases in LUC and H3.3KD cells is shown. (FIG. 8C) Flies deficient in H3.3 accumulate endogenous DNA damage. Western blot showing the levels of γH2A.v (the fly homolog of mammalian γH2A.X) in adult flies of the indicated genotypes: wild-type (WT; Oregon-R), heterozygous (het, with just one H3.3 allele) and rescue (res, which completely lacks H3.3, but its sterility is rescued by an extra copy of H3.2 driven by the H3.3B promoter). A sample from flies treated with 10 Gy IR is included as a positive control for γH2A.v signal. […] 100 third instar Drosophila larvae from WT and heterozygous (H3.3 Het) genotype carrying just one out of four alleles of H3.3 were exposed to either IR or ultra violet (UV) light and their development into adult flies was monitored for over two weeks. […] Viable flies remaining were scored daily for a week. […]

H3.3KD cells = experiment: Viability by flow cytometry (Live/Dead staining) after DNA damaging agents; format: cell-based, human
Procedure: FIGS. 1A-1G show replacement histone variant H3.3 is rapidly recruited to DNA damage sites and cells deficient in H3.3 accumulate endogenous damage, while also being hypersensitive to DNA damaging agents. FIG. 1A: Histone variant H3.3 is rapidly recruited to sites of laser induced DNA damage in living cells. HCT116 human colon carcinoma cells were transiently co-transfected with expression constructs for H3.3-mEmerald and RFP-PCNA. […] Percent recruitment was calculated by dividing the number of cells recruiting H3.3 by the number of cells recruiting PCNA in the same cells. n=number of cells analyzed. […] The percentage knockdown for each clone shown at the bottom of the lanes was quantitated by measuring fluorescence intensity of the H3.3 band relative to the signal from the H4 band on a Li-Cor Odyssey imager. […] The presence of endogenous damage in H3.3KD and control LUC cells was determined by Western blotting of whole cell extracts using the indicated antibodies. […] 48 hours after MMS treatment, the viability of the cells was scored by flow cytometry using the violet fluorescent Live/Dead cell staining kit (Invitrogen) following the manufacturer's instructions. […] Significant differences between treatments are indicated by p values determined using a t-test. […]

For COS(C)(=O)=O [MMS, methyl methane sulfonate], the “sensitivity of H3G34R yeast compared to wild-type” value [1] was “hypersensitive” and the “sensitivity of H3.3 KD cells compared to control LUC cells” value (H3.3KD cells; 0.0175% MMS for 2 hours, viability 48 hours after) was “very sensitive”.

NC(Cn1ccc(=O)c(O)c1)C(=O)O (stereo not drawn) [Mimosine] was tested, and the “sensitivity of H3.3 KD cells compared to control LUC cells” value (H3.3KD cells; 0.5 mM Mimo) was “very sensitive”.
